≈ marks a conversion by molar mass, not a printed value. Like-named read-outs stand apart in the source and are kept apart here.
What was measured:
[1] = Phase solubility study of carvacrol with HP-β-CDs (Higuchi and Connors); format: physicochemical
Experimental: (§1) The solubility studies of carvacrol, in the presence of CDs, were performed according to the method described by Higuchi and Connors in 1965, with slight modifications. […] For an evaluation of the pH effect in the process of complex formation, these solutions were prepared in different buffer solutions: 100 mM sodium acetate buffer, pH 3.5 and 5.5; 100 mM sodium phosphate buffer, pH 6.5 and 7.0; and 100 mM sodium borate buffer, pH 8.5. To each solution, a saturating amount of the carvacrol under analysis was added, then the solutions were kept in an ultrasonic bath for 60 min in the dark at 25 °C until equilibrium was reached. After this point, the solutions were filtered through 0.45 μm nylon to remove the excess carvacrol.
(§2) To quantify the amount of monoterpene in each filtrate, the complexes were disrupted by adding 80% ethanol. Each solution was then introduced into a gas chromatograph, coupled to a mass spectrometer (Shimadzu QP 2010) equipped with an Slb-5 ms (30 m × 0.25 mm × […]) capillary column. The operating conditions are as follows: the starting temperature is 70 °C, the temperature is increased at a rate of 4 °C/min until it reaches 160 °C and is then increased to 280 °C at a rate of 30 °C/min, then held there for 6 min; the inlet temperature is 250 °C, the injection type is a 1:20 split mode, with helium used as the carrier gas. Component identification is based on the relative elution times and comparison of the mass spectra of each peak against a database containing the system.
(§3) Once the concentrations of carvacrol in each sample were quantified, the values obtained were plotted against the concentrations of CDs. For the calculation of KC, the slope and intercept of the phase diagrams related to the solubility studies were determined, according to Equation (1):(1) KC=Slope/S0 (1−Slope) where S0 is the solubility of carvacrol at 25 °C, in the absence of cyclodextrins, and Slope is the gradient of the phase solubility diagrams.
(§4) To determine the complexation efficiency (CE) of carvacrol, Equation (2) was used:(2) CE=[carvacrol−CDs]/[CD]=S0× KC.
(§5) The molar ratio (MR) of carvacrol:CDs was calculated using the CE values and Equation (3):(3) carvacrol:CDs=1:(1+1/CE).

[2] = Phase solubility study of carvacrol with α-CDs (Higuchi and Connors); format: physicochemical
Experimental: as §1, §2, §3, §4, §5

[3] = weak acid; cited from earlier work
[4] = Phase solubility study of carvacrol with β-CDs (Higuchi and Connors); format: physicochemical; details: for CE (complexation efficiency) / KC: β-CDs
Experimental: as §1, §2, §3, §4, §5

[5] = tested on: MRC-5 lung fibroblast cells; assay: Cell viability assay (tetrazolium), MRC-5; format: cell-based; details: Homo sapiens, MRC5; MRC-5, 72 h incubation
Experimental: (§6) Colorectal adenocarcinoma (HCT-116) and non-tumoral fetal lung fibroblast (MRC5) cell lines were obtained from the American Type Culture Collection (ATCC, Rockville, MD, USA). The cell lines were cultivated in high glucose Dulbecco’s modified Eagle’s medium (DMEM) and Eagle’s minimum essential medium (EMEM), respectively, containing 10% heat-inactivated fetal bovine serum (FBS), 2 mM glutamine, 50 U/mL penicillin and 50 µg/mL streptomycin (Sigma-Aldrich Chemical Co., St. Louis, MO, USA) in an atmosphere of 5% CO2 and 95% humidified air at 37 °C. The subculture was complete when 90% confluence was reached. Fibroblasts for up to 15 doublings were used for the experiments.
(§7) Exponentially growing cells were plated in triplicate in flat-bottomed 96-well plates (Nunc, Roskilde, Denmark) at 1500 cells/well for HCT-116 and 4000 cells/well for MRC5. The following day, compounds were added in serial dilutions, from 50 µM to 1000 µM. Control wells contained compound-free medium plus 0.1% dimethyl sulfoxide (DMSO). The plates were incubated for 3 days in a humidified 5% CO2 incubator and cell viability was determined. […] The formazan crystals were dissolved in 200 µL DMSO for 30 min and the absorbance was read at 570 nm in a microtiter plate reader. The results were calculated as:(7) cell viability (%)=average O.D of wells/average O.D of control wells.

[6] = Complexation of carvacrol with HP-β-CD by microwave irradiation (MWI); format: physicochemical; details: for increase in solubility of carvacrol / KC: HP-β-CDs
Experimental: as §3
The calculation of the complexation constant (KC) between carvacrol and HP-β-CDs was carried out by the addition of different concentrations of HP-β-CDs to 100 mL of water, maintaining a 1:1 molar ratio. Aqueous HP-β-CD solutions (0–100 mM) were irradiated with microwaves for 30 s at 10 s intervals until the dissolution reached 70 °C. The carvacrol was then added to each sample and irradiated again for 30 s at the same intervals (10 s) until the samples reached 70 °C. Subsequently, the samples were shaken and held for 12 h in scintillation vials, sealed with parafilm, and protected from light.
Then, we repeated the above procedure by irradiating the sample again until it reached 70 °C. The solution was then filtered through 0.45 μm nylon to remove the excess carvacrol. Finally, the concentration of monoterpene was determined via CG-MS.

[7] = tested on: HCT-116 colorectal cancer cells; assay: Cell viability assay (tetrazolium), HCT-116; format: cell-based; details: Homo sapiens; HCT-116, 72 h incubation
Experimental: as §6, §7

[8] = Solubility of carvacrol in the absence of cyclodextrins (S0) at different pH; format: physicochemical; details: for S0 (solubility of carvacrol) / solubility at 60 min: absence of CDs; for solubility at 60 min: aqueous buffer, thermodynamic from solid
Experimental: as §1, §2, §3

[9] = Complexation of carvacrol with HP-β-CD by ultrasound (US); format: physicochemical
Experimental: as §3
The solubility method was developed from that used by Higuchi and Connors, with minor modifications. We added an excess of carvacrol to an aqueous solution that increased the concentration to 100 mM HP-β-CD, in 100 mL of water, at 25 °C. […] The aqueous solutions were filtered through 0.45 µm nylon to remove the excess free carvacrol. To determine the amount of carvacrol complexed, samples were diluted in ethanol-water at 80% and analyzed via gas chromatography–mass spectrometry (CG–MS).

[10] = end of the 7-day period, 300 µM, DMEM with HCT-116 cells, 37 °C
Experimental: Carvacrol release from the free and complexed carvacrol was monitored by chromatography (see Section 2.2). Briefly, 1 × 10^5 HCT-116 cells were grown for up to 7 days in DMEM, supplemented with 300 µM free or complexed HP-β-CD-carvacrol, at 37 °C. At each appropriate time point (days 1–7), 1 mL aliquots were withdrawn and replaced with an equal volume of fresh medium. All determinations were made in triplicate.

[11] = set-up: method as in PMID 25298799; details: with HP-β-CDs; cited from earlier work
[12] = set-up: method as in PMID 25298799; details: with RAMEB; cited from earlier work
[13] = set-up: method as in PMID 25298799; details: with CRYSMEB; cited from earlier work

For `Cc1ccc(C(C)C)cc1O` [carvacrol], the “CE (complexation efficiency)” value ([1]; pH 3.5) was 0.546, the KC ([1]; pH 3.5) was 198 ± 19 L/mol and the “CE (complexation efficiency)” value ([1]; pH 5.5) was 0.540. The KC ([1]; pH 5.5) was 327 ± 37 L/mol, the “CE (complexation efficiency)” value ([1]; pH 6.5) was 1.399 and the KC ([1]; pH 6.5) was 1521 ± 73 L/mol. The “CE (complexation efficiency)” value ([1]; pH 7.0) was 2.824, the KC ([1]; pH 7.0) was 5042 ± 176 L/mol and the “CE (complexation efficiency)” value ([1]; pH 8.5) was 0.739. The KC ([1]; pH 8.5) was 973 ± 94 L/mol, the “CE (complexation efficiency)” value ([2]; pH 3.5) was 0.298 and the KC ([2]; pH 3.5) was 108 ± 16 L/mol. For the same molecule, the “CE (complexation efficiency)” value ([2]; pH 5.5) was 0.317, the KC ([2]; pH 5.5) was 192 ± 24 L/mol and the “CE (complexation efficiency)” value ([2]; pH 6.5) was 0.220. For the same molecule, the KC ([2]; pH 6.5) was 239 ± 42 L/mol, the “CE (complexation efficiency)” value ([2]; pH 7.0) was 0.224 and the KC ([2]; pH 7.0) was 400 ± 56 L/mol. For the same molecule, the “CE (complexation efficiency)” value ([2]; pH 8.5) was 0.216, the KC ([2]; pH 8.5) was 284 ± 37 L/mol and the pKa [3] was 10.38. The “KC with β-CDs relative to KC with α-CD” value ([4]; compared with α-CD (400 ± 56)) was 8 times higher, the “CE (complexation efficiency)” value ([4]; pH 3.5) was 0.386 and the KC ([4]; pH 3.5) was 140 ± 21 L/mol. The “CE (complexation efficiency)” value ([4]; pH 5.5) was 1.234, the KC ([4]; pH 5.5) was 748 ± 19 L/mol and the “CE (complexation efficiency)” value ([4]; pH 6.5) was 0.797. For the same molecule, the KC ([4]; pH 6.5) was 866 ± 180 L/mol, the “CE (complexation efficiency)” value ([4]; pH 7.0) was 1.941 and the KC ([4]; pH 7.0) was 3466 ± 115 L/mol. The “CE (complexation efficiency)” value ([4]; pH 8.5) was 0.441, the KC ([4]; pH 8.5) was 580 ± 45 L/mol and the IC50 [5] was 398 µM. For the same molecule, the “increase in solubility of carvacrol” value ([6]; MWI, 24 h) was 151.8 times, the “increase in solubility of carvacrol” value ([6]; MWI, 48 h) was 155.6 times and the KC ([6]; MWI, at 24 h, pH 7.0) was 8129 ± 194 L/mol. For the same molecule, the KC ([6]; MWI, at 48 h, pH 7.0) was 6811 ± 107 L/mol, the KC ([6]; microwave irradiation (MWI)) was 6909 ± 161 L/mol and the S0 ([6]; in the case of MWI) was 0.35 mmol/L. For the same molecule, the IC50 [7] was 385 µM, the “S0 (solubility of carvacrol)” value ([8]; pH 3.5, 25 °C) was 2760 ± 200 µM and the “S0 (solubility of carvacrol)” value ([8]; pH 6.5, 25 °C) was 920 ± 110 µM. The “decrease of solubility at pH 7.0 relative to acidic pH” value ([8]; pH 7.0 vs acidic pH (S0 = 2.76)) was 80%, the “S0 (solubility of carvacrol)” value ([8]; pH 8.5, 25 °C) was 760 ± 130 µM and the solubility at 60 min ([8]; sodium acetate buffer, pH 3.5, 25 °C) was 2760 µM (≈ 415 µg/mL). It also gave a solubility at 60 min ([8]; sodium acetate buffer, pH 5.5, 25 °C) of 1650 ± 160 µM (≈ 248 µg/mL), a solubility at 60 min ([8]; sodium borate buffer, pH 8.5, 25 °C) of 760 µM (≈ 114 µg/mL) and a solubility at 60 min ([8]; sodium phosphate buffer, pH 6.5, 25 °C) of 920 µM (≈ 138 µg/mL). The solubility at 60 min ([8]; sodium phosphate buffer, pH 7.0, 25 °C) was 560 ± 30 µM (≈ 84.1 µg/mL), the “increase in solubility of carvacrol” value ([9]; HP-β-CDs, US method) was 132.9 times and the KC ([9]; HP-β-CDs, US, pH 7.0) was 6909 ± 161 L/mol. The KC ([9]; HP-β-CDs, ultrasound (US), 24 h) was 8129 ± 194 L/mol, the S0 ([9]; achieved by US) was 0.56 mmol/L and the “soluble drug (carvacrol release)” value [10] was 4.37 ± 1.61%.

In the case of `O=C(O)/C=C/c1ccc(O)cc1` [p-coumaric acid], the “CE (complexation efficiency)” value [11] is given as 2.30, the “CE (complexation efficiency)” value [12] is given as 2.57 and the “CE (complexation efficiency)” value [13] is given as 1.89.
